Some results are limits rather than exact numbers.

Data set [1] is described as follows: Powder stability at RT, 4 °C and −20 °C for up to 18 months (LC-MS/MS). The format is physicochemical. The note with it: for loss of the compound: 4 °C. On the procedure:
The potential breakdown of BIO203 compared to BIO201 was assessed every three months in samples stored for up to 18 months at room temperature, 4 °C, and −20 °C. On the day of analysis, weighted samples of BIO203 and norbixin powder were solubilized in DMSO at 10 mg/mL final concentration. DMSO solutions were further diluted 400-fold before performing LC-MS/MS analysis which was performed on an LC 1260 System coupled with Mass Spectrometer QQQ-6420 with DAD (Supplier Agilent Technologies). BIO201 and BIO203 were eluted from a reverse-phase column (2.1 mm × 50 mm; 5 μm particles; Fortis C18) with the following gradient of acetonitrile in water (both containing 0.1% formic acid): 10 to 100% in 10 min), (flow-rate: 0.3 mL/min), (UV detection A: 460 nm, B: 254 nm, DAD: 210–500 nm), (MS scan+: 50 to 800 Frag 120 CAV 5, MS scan-: 50 to 800 Frag 120 CAV 5). The AUC value was used to determine the stability of each compound.

Data set [2] concerns primary porcine RPE cells. Briefly: RPE phototoxicity: photoprotection of RPE cells exposed to A2E and blue light. It counts as cell-based, pig. The note with it: A2E 30 μM + blue-light illumination. On the procedure:
RPE cells were obtained from pig eyes, as previously described. RPE cells were seeded on a 96-well plate at a density of 1.5 × 10^5 cells/cm^2 in DMEM 2% FCS. BIO201, BIO203, or its pure enantiomers were added in increasing concentrations to the culture medium 48 h before illumination. A2E was added to the medium at a final concentration of 30 μM, and 19 h later, blue-light illumination was performed for 50 min using a 96 blue-led device (Durand, St Clair de la Tour, France) emitting at 470 nm (1440 mcd, 8.6 mA). Just before illumination, the culture medium was replaced by a modified DMEM without any photosensitizer and with 2% FCS. Twenty-four hours after blue-light irradiation, all cell nuclei were stained with Hoechst 33342, and nuclei of dead cells with ethidium homodimer 2, fixed with paraformaldehyde (4% in PBS, 10 min) and 9 pictures per well were captured using a fluorescence microscope (Nikon TiE) equipped with a CoolSNAP HQ2 camera and driven by Metamorph Premier On-Line program. Quantification of live cells was performed using Metamorph Premier Off-Line and a homemade program by subtraction of dead cells from all cells. For cytokines mRNA analysis, RPE cells were seeded in 24-well plates and left untreated or treated with A2E or BIO203 alone or A2E plus BIO203. After 48 h, cells were lysed using the lysis buffer from the NucleoSpin® RNA kit, and the samples were stored at −80 °C.

Data set [3] can be described thus: Acute ocular PK in rats following a single IP administration. It counts as in vivo, rat. The note with it: for intraocular AUC / intraocular Cmax / time of intraocular Cmax post-administration: norbixin 10 mg/kg, BIO203 8.8 mg/kg. On the procedure: The compounds were administered to 8–9 months-old Male Sprague-Dawley rats (n = 3 per group and per collection time) by the intraperitoneal route in vehicle (DMSO/NaCl/NaOH for BIO203 and PBS/Tween 80 (95/5) for norbixin) with an administration volume of 10 mL/kg. The solutions of BIO203 and norbixin were centrifuged, and the clear supernatants were administered to rats. The final injected concentrations were 10 mg/kg and 8.8 mg/kg for norbixin and BIO203, respectively. Doses administered differ because BIO201 and BIO203 solubility are not equivalent in their respective vehicles, and the dose of BIO203 was reduced to avoid toxicity of DMSO present in the vehicle, but the same volumes were injected into animals. Eyes were collected post-administration according to the following timing: 0, 0.08 h, 0.25 h, 0.5 h, 1 h, 1.5 h, 2 h, 4 h, 8 h, and 24 h. After euthanasia, the two eyes of each rat were collected in a Precellys tube, frozen, and stored at −80 °C.
(§1) Analysis was performed on an LC 1260 System coupled with Mass Spectrometer QQQ-6420 with DAD (Agilent Technologies). Norbixin and BIO203 were eluted from a reverse-phase column (2.1 × 50 mm; 3 μm particles; Ace Excel C18) with the following gradient of acetonitrile in water (both containing 0.1% formic acid): 55 to 100% in 5 min), (flowrate: 0.3 mL/min). […] were monitored by a mass spectrometer, in positive MRM mode, with the following transitions, respectively, 381.1 -> 144.9 and 478.1 -> 362.9. For quantification of BIO201 and BIO203, calibration curves were prepared under the same conditions as the sample matrix, with various amounts of BIO201 or BIO203 (25 to 10,000 ng/mL in plasma and 5 to 500 ng/mL for eyes).
For determination of concentrations of BIO201 or BIO203 in ocular tissues, each eye was homogenized in CHCl3/MeOH (1:1, v/v) (0.5 mL) with a homogenizer (Precellys-24) during 2 cycles (30 s) at 6500 rpm. The internal standard (retinoic acid at 10 µg/mL) was added, and the organic layer was extracted. The homogenate was then extracted two times with CHCl3/CH2Cl2 (0.5 mL). The combined organic extracts were dried in vacuo without heating (EZ2, Genevac Ltd., Ipswich, UK). Then they were dissolved in 100 μL DMSO/MeOH (1:1, v/v) and transferred to microtiter plates for LC-MS/MS analysis.

A short description of data set [4]: Ocular PK in rats following four repeated IP administrations. It counts as in vivo. The note with it: rat eye; for ocular exposure: BIO201 10 mg/kg, BIO203 2.5 mg/kg. On the procedure: The compounds were administered to 8–9 months old Male Sprague-Dawley rats (n = 3 per group and per collection time) by four successive intraperitoneal administrations in vehicle (DMSO/NaCl/NaOH for BIO203 and PBS/Tween 80 (95/5) for BIO201). The solutions of BIO203 and BIO201 were centrifuged, and the clear supernatants were administered to rats. Administered volume was 10 mL/kg, and the final injected concentrations were 10 mg/kg and 2.5 mg/kg for BIO201 and BIO203, respectively. Again, doses administered differ because BIO201 and BIO203 solubility are not equivalent in their respective vehicles. The dose of BIO203 was reduced to avoid toxicity of DMSO present in the vehicle, but the same volumes were injected into animals. The eyes were collected 1 h after administrations n°1 to 4 according to the following timing: 1 h, 3.5 h, 5.5 h, and 7.5 h. After euthanasia, the two eyes of each rat were collected in a Precellys tube, frozen, and stored at −80 °C.
as §1
For determination of concentrations of BIO201 or BIO203 in ocular tissues, each eye was homogenized in CHCl3/MeOH (1:1, v/v) (0.5 mL) with a homogenizer (Precellys-24) during 2 cycles (30 s) at 6500 rpm. The internal standard (retinoic acid at 10 µg/mL) was added, and the organic layer was extracted. The homogenate was then extracted two times with CHCl3/CH2Cl2 (0.5 mL). […]

In the case of `CC(=C/C=C/C(C)=C/C=C/C=C(C)/C=C/C=C(C)/C=C/C(=O)O)/C=C/C(=O)O` [norbixin, 9′-cis-norbixin], the results for the “loss of the compound” value in data set [1] (3 months), in data set [1] (6 months) and in data set [1] (12 months) were 10%, −20.8% and −66.4%, respectively. Besides, the “left of the initial quantity” value in data set [1] (RT, 3 months) was 41%; in data set [1] (RT, stabilized between 12 and 18 months) it was 22.1%. In addition, in data set [1] (−20 °C, after one year), the loss of compound is listed as −18.1%. Further, in data set [1] (−20 °C, up to 6 months), the stability entry is listed as “appeared stable”. Also, the “survival of RPE cells” value in data set [2] (20 μM compound) was “more than 80%”. Also, the “concentration of maximum efficacy / highest protection” value in data set [2] came to 20 µM. Also, the “remaining intraocular concentration at 24 h” value in data set [3] (rat eye, single IP, 24 h) is reported as “no longer detectable”. Further, the “intraocular AUC” value in data set [3] (rat eye, single IP) was determined as 2.5 ng·h/eye. Also, the “intraocular Cmax” value in data set [3] (rat eye, single IP) is listed as “less than 8.5 ng/eye”. Moreover, the “time of intraocular Cmax post-administration” value in data set [3] (rat eye, single IP) turned out to be 0.25 h. This compound also returned an ocular exposure in data set [4] of 16.7 ng·h/eye.

`COC1CCCN(C(=O)/C=C/C(C)=C/C=C/C(C)=C/C=C/C=C(C)/C=C/C=C(C)\C=C\C(=O)O)C1` (centres unmarked) [BIO203]: in data set [1] (RT, +4 °C and −20 °C, 18 months), the stability entry is listed as “stable at all temperatures tested for at least 18 months”. Further, in data set [2], the “concentration from which protective effect was observed” value was no less than 10 µM and the “concentration of maximum efficacy / highest protection” value was 15 µM. Further, in data set [3] (discussion summary), the “ocular AUC increase compared to BIO201” value was greater than 200 fold and the “ocular Cmax increase compared to BIO201” value is “more than 10 fold”. Besides, in data set [3] (male, Sprague-Dawley, 8.8 mg/kg, rat eye, single IP, 24 h, read-out: remaining intraocular concentration at 24 h), the concentration at 24 h was roughly 2 ng/mL. Further, in data set [3] (rat eye, single IP), the “intraocular AUC of BIO203 relative to norbixin” value was “approximately 280 times”, the “intraocular AUC” value amounted to 704.1 ng·h/eye, the “intraocular Cmax” value is listed as 133.1 ng/eye and the “time of intraocular Cmax post-administration” value is listed as 1 h. Further, in data set [4], the “ocular exposure of BIO203 relative to BIO201” value is on record as “approximately 10 times” and the ocular exposure is reported as 144.9 ng·h/eye.

Source of the values: PMC10049354, “Anti-Inflammatory Effects and Photo- and Neuro-Protective Properties of BIO203, a New Amide Conjugate of Norbixin, in Development for the Treatment of Age-Related Macular Degeneration (AMD)” (International Journal of Molecular Sciences, 2023).
